Source: patent publication US20260285850A1, “SUBSTITUTED OXAZOLIDINONES AND IMIDAZOLINONES AS HERBICIDES” (FMC CORPORATION, priority 2023, published 2026)

Assays:
Type in all cases: in vivo
[1] = test system: green foxtail (Setaria viridis); assay: Test A postemergence application, visual injury rating 0-100; settings: for Foxtail, Green plant response rating (0 to 100 scale): Postemergence
Method in brief: (§1)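 Visual injury ratings (0, no effect; 100, complete control) were assigned relative to untreated plants 10 days after treatment. Test chemicals, formulated with a surfactant-containing non-phytotoxic solvent, were applied in loam-sand soil either as a directed soil spray before emergence or to emerged plants, and plants were kept in a greenhouse.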

[2] = test system: wheat (Triticum aestivum); assay: as above; settings: for Wheat plant response rating (0 to 100 scale): Postemergence
Method in brief: as §1

soybean (Glycine max) [3] = assay: as above; settings: for Soybean plant response rating (0 to 100 scale): Postemergence
Method in brief: as §1

[4] = test system: ryegrass, Italian (italian ryegrass, Lolium multiflorum); assay: as above; settings: for Ryegrass, Italian plant response rating (0 to 100 scale): Postemergence
Method in brief: as §1

[5] = test system: horseweed (Erigeron canadensis); assay: as above; settings: for Horseweed plant response rating (0 to 100 scale): Postemergence
Method in brief: as §1

[6] = test system: barnyardgrass (Echinochloa crus-galli); assay: as above; settings: for Barnyardgrass plant response rating (0 to 100 scale): Postemergence
Method in brief: as §1

[7] = test system: blackgrass (Alopecurus myosuroides); assay: as above; settings: for Blackgrass plant response rating (0 to 100 scale): Postemergence
Method in brief: as §1

corn (Zea mays) [8] = assay: as above; settings: for Corn plant response rating (0 to 100 scale): Postemergence
Method in brief: as §1

kochia (Bassia scoparia) [9] = assay: as above; settings: for Kochia plant response rating (0 to 100 scale): Postemergence
Method in brief: as §1

[10] = test system: oat, wild (wild oat, Avena fatua); assay: as above; settings: for Oat, Wild plant response rating (0 to 100 scale): Postemergence
Method in brief: as §1

[11] = test system: ragweed (common ragweed, Ambrosia artemisiifolia); assay: as above; settings: for Ragweed plant response rating (0 to 100 scale): Postemergence
Method in brief: as §1

[12] = test system: palmer (palmer amaranth, palmer pigweed, Amaranthus palmeri); assay: as above; settings: for Amaranth, Palmer / Pigweed, Palmer plant response rating (0 to 100 scale): 0 is no effect, 100 is complete control
Method in brief: as §1

[13] = test system: galium (catchweed bedstraw, Galium aparine); assay: as above; settings: for Galium plant response rating (0 to 100 scale): Postemergence
Method in brief: as §1

[14] = test system: sedge, umbrella (small-flower umbrella sedge, Cyperus difformis); assay: Test B flooded paddy test, visual plant response rating 0-100; settings: 250 g ai/ha, Flood, applied to paddy water, evaluated after 13 days
Method in brief: (§2)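 2-leaf plants; flood 3 cm over soil; compound dosed into paddy water; depth kept constant; greenhouse 13 d; visual scoring vs controls. Dash = no result.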

rice (Oryza sativa) = assay: as above; settings: 250 g ai/ha, Flood, applied to paddy water, evaluated after 13 days
Method in brief: as §2

[15] = test system: barnyardgrass (Echinochloa crusgalli); assay: as above; settings: 250 g ai/ha, Flood, applied to paddy water, evaluated after 13 days
Method in brief: as §2

[16] = test system: ducksalad (Heteranthera limosa); assay: as above; settings: 250 g ai/ha, Flood, applied to paddy water, evaluated after 13 days
Method in brief: as §2

[17] = test system: green foxtail (Setaria viridis); assay: Test A preemergence soil spray, visual injury rating 0-100; settings: 10 days
Method in brief: as §1

[18] = test system: wheat (Triticum aestivum); assay: as above; settings: 10 days
Method in brief: as §1

soybean (Glycine max) [19] = assay: as above; settings: 10 days
Method in brief: as §1

[20] = test system: ryegrass, Italian (italian ryegrass, Lolium multiflorum); assay: as above; settings: 10 days
Method in brief: as §1

[21] = test system: barnyardgrass (Echinochloa crus-galli); assay: as above; settings: 10 days
Method in brief: as §1

[22] = test system: blackgrass (Alopecurus myosuroides); assay: as above; settings: 10 days
Method in brief: as §1

corn (Zea mays) [23] = assay: as above; settings: 10 days
Method in brief: as §1

kochia (Bassia scoparia) [24] = assay: as above; settings: 10 days
Method in brief: as §1

[25] = test system: oat, wild (wild oat, Avena fatua); assay: as above; settings: 10 days
Method in brief: as §1

[26] = test system: ragweed (common ragweed, Ambrosia artemisiifolia); assay: as above; settings: 10 days
Method in brief: as §1

[27] = test system: palmer (palmer amaranth, palmer pigweed, Amaranthus palmeri); assay: as above; settings: 10 days
Method in brief: as §1

[28] = 125 g ai/ha, 10 days, 0 is no effect, 100 is complete control
[29] = 500 g ai/ha, 10 days, 0 is no effect, 100 is complete control
[30] = 125 g ai/ha, 0 = no effect, 100 = complete control
[31] = 500 g ai/ha, 0 = no effect, 100 = complete control
[32] = 62 g ai/ha, postemergence, 10 days, 0 = no effect, 100 = complete control
[33] = 16 g ai/ha, greenhouse 10 days, 0 no effect, 100 complete control
[34] = 62 g ai/ha, 0 = no effect, 100 = complete control

COC(=O)C1C=CC(NC(=O)C2(C)CN(c3cc(Cl)cc(Cl)c3)C(=O)O2)C1 (centres unmarked) [Compound 42]
Foxtail, Green plant response rating (0 to 100 scale) [1, 28]: 90
Foxtail, Green plant response rating (0 to 100 scale) [1, 29]: 90
Wheat plant response rating (0 to 100 scale) [2, 28]: 90
Wheat plant response rating (0 to 100 scale) [2, 29]: 90
Soybean plant response rating (0 to 100 scale) (soybean (Glycine max) [3]; [28]): 90
Soybean plant response rating (0 to 100 scale) (soybean (Glycine max) [3]; [29]): 80
Ryegrass, Italian plant response rating (0 to 100 scale) [4, 28]: 90
Ryegrass, Italian plant response rating (0 to 100 scale) [4, 29]: 90
Horseweed plant response rating (0 to 100 scale) [5, 28]: 80
Horseweed plant response rating (0 to 100 scale) [5, 29]: 90
Barnyardgrass plant response rating (0 to 100 scale) [6, 28]: 100
Barnyardgrass plant response rating (0 to 100 scale) [6, 29]: 100
Blackgrass plant response rating (0 to 100 scale) [7, 28]: 100
Blackgrass plant response rating (0 to 100 scale) [7, 29]: 100
Corn plant response rating (0 to 100 scale) (corn (Zea mays) [8]; [28]): 100
Corn plant response rating (0 to 100 scale) (corn (Zea mays) [8]; [29]): 100
Kochia plant response rating (0 to 100 scale) (kochia (Bassia scoparia) [9]; [28]): 80
Kochia plant response rating (0 to 100 scale) (kochia (Bassia scoparia) [9]; [29]): 80
Oat, Wild plant response rating (0 to 100 scale) [10, 28]: 90
Oat, Wild plant response rating (0 to 100 scale) [10, 29]: 90
Ragweed plant response rating (0 to 100 scale) [11, 28]: 70
Ragweed plant response rating (0 to 100 scale) [11, 29]: 80
Amaranth, Palmer / Pigweed, Palmer plant response rating (0 to 100 scale) ([12]; Postemergence, 125 g ai/ha, 10 days): 100
Amaranth, Palmer / Pigweed, Palmer plant response rating (0 to 100 scale) ([12]; Postemergence, 500 g ai/ha, 10 days): 100
Galium plant response rating (0 to 100 scale) [13, 28]: 70
Galium plant response rating (0 to 100 scale) [13, 29]: 80
Plant response rating, Sedge, Umbrella (0 to 100 scale, 0 is no effect and 100 is complete control) [14]: 95
Plant response rating, Rice (0 to 100 scale, 0 is no effect and 100 is complete control) (rice (Oryza sativa)): 15
Plant response rating, Barnyardgrass (0 to 100 scale, 0 is no effect and 100 is complete control) [15]: 95
Plant response rating, Ducksalad (0 to 100 scale, 0 is no effect and 100 is complete control) [16]: 90
Foxtail, Green plant response rating (0 to 100 scale) [17, 30]: 100
Foxtail, Green plant response rating (0 to 100 scale) [17, 31]: 100
Wheat plant response rating (0 to 100 scale) [18, 30]: 90
Wheat plant response rating (0 to 100 scale) [18, 31]: 90
Soybean plant response rating (0 to 100 scale) (soybean (Glycine max) [19]; [30]): 40
Soybean plant response rating (0 to 100 scale) (soybean (Glycine max) [19]; [31]): 70
Ryegrass, Italian plant response rating (0 to 100 scale) [20, 30]: 90
Ryegrass, Italian plant response rating (0 to 100 scale) [20, 31]: 100
Barnyardgrass plant response rating (0 to 100 scale) [21, 30]: 100
Barnyardgrass plant response rating (0 to 100 scale) [21, 31]: 100
Blackgrass plant response rating (0 to 100 scale) [22, 30]: 90
Blackgrass plant response rating (0 to 100 scale) [22, 31]: 100
Corn plant response rating (0 to 100 scale) (corn (Zea mays) [23]; [30]): 90
Corn plant response rating (0 to 100 scale) (corn (Zea mays) [23]; [31]): 90
Kochia plant response rating (0 to 100 scale) (kochia (Bassia scoparia) [24]; [30]): 90
Kochia plant response rating (0 to 100 scale) (kochia (Bassia scoparia) [24]; [31]): 90
Oat, Wild plant response rating (0 to 100 scale) [25, 30]: 90
Oat, Wild plant response rating (0 to 100 scale) [25, 31]: 90
Ragweed plant response rating (0 to 100 scale) [26, 30]: 20
Ragweed plant response rating (0 to 100 scale) [26, 31]: 80
Amaranth, Palmer plant response rating (0 to 100 scale) [27, 30]: 100
Amaranth, Palmer plant response rating (0 to 100 scale) [27, 31]: 100

C=CC1(C(=O)NC2C=CC(C(=O)O)C2)CN(c2cc(F)cc(F)c2)C(=O)O1 (mixture of isomers) [Compound 166]
Foxtail, Green plant response rating (0-100) [1, 32]: 90
Foxtail, Green plant response rating (0 to 100 scale) [1, 33]: 30
Wheat plant response rating (0-100) [2, 32]: 90
Wheat plant response rating (0 to 100 scale) [2, 33]: 90
Soybean plant response rating (0-100) (soybean (Glycine max) [3]; [32]): 100
Soybean plant response rating (0 to 100 scale) (soybean (Glycine max) [3]; [33]): 80
Ryegrass, Italian plant response rating (0-100) [4, 32]: 90
Ryegrass, Italian plant response rating (0 to 100 scale) [4, 33]: 60
Horseweed plant response rating (0-100) [5, 32]: 80
Horseweed plant response rating (0 to 100 scale) [5, 33]: 50
Barnyardgrass plant response rating (0-100) [6, 32]: 100
Barnyardgrass plant response rating (0 to 100 scale) [6, 33]: 90
Blackgrass plant response rating (0-100) [7, 32]: 90
Blackgrass plant response rating (0 to 100 scale) [7, 33]: 70
Corn plant response rating (0-100) (corn (Zea mays) [8]; [32]): 100
Corn plant response rating (0 to 100 scale) (corn (Zea mays) [8]; [33]): 90
Kochia plant response rating (0-100) (kochia (Bassia scoparia) [9]; [32]): 80
Kochia plant response rating (0 to 100 scale) (kochia (Bassia scoparia) [9]; [33]): 80
Oat, Wild plant response rating (0-100) [10, 32]: 90
Oat, Wild plant response rating (0 to 100 scale) [10, 33]: 90
Ragweed plant response rating (0-100) [11, 32]: 70
Ragweed plant response rating (0 to 100 scale) [11, 33]: 40
Pigweed, Palmer plant response rating (0-100) [12, 32]: 90
Pigweed, Palmer plant response rating (0 to 100 scale) ([12]; Postemergence, 16 g ai/ha, greenhouse 10 days, 0 no effect, 100 complete control): 90
Galium plant response rating (0-100) [13, 32]: 90
Galium plant response rating (0 to 100 scale) [13, 33]: 70
Plant response rating, Sedge, Umbrella (0 to 100 scale, 0 is no effect and 100 is complete control) [14]: 95
Plant response rating, Rice (0 to 100 scale, 0 is no effect and 100 is complete control) (rice (Oryza sativa)): 80
Plant response rating, Barnyardgrass (0 to 100 scale, 0 is no effect and 100 is complete control) [15]: 95
Plant response rating, Ducksalad (0 to 100 scale, 0 is no effect and 100 is complete control) [16]: 85
Foxtail, Green plant response rating ([17]; 16 g ai/ha, 0 to 100 scale): 0
Foxtail, Green plant response rating (0-100) [17, 34]: 50
Wheat plant response rating ([18]; 16 g ai/ha, 0 to 100 scale): 60
Wheat plant response rating (0-100) [18, 34]: 90
Soybean plant response rating (soybean (Glycine max) [19]; 16 g ai/ha, 0 to 100 scale): 20
Soybean plant response rating (0-100) (soybean (Glycine max) [19]; [34]): 90
Ryegrass, Italian plant response rating ([20]; 16 g ai/ha, 0 to 100 scale): 0
Ryegrass, Italian plant response rating (0-100) [20, 34]: 90
Barnyardgrass plant response rating ([21]; 16 g ai/ha, 0 to 100 scale): 40
Barnyardgrass plant response rating (0-100) [21, 34]: 100
Blackgrass plant response rating ([22]; 16 g ai/ha, 0 to 100 scale): 10
Blackgrass plant response rating (0-100) [22, 34]: 70
Corn plant response rating (corn (Zea mays) [23]; 16 g ai/ha, 0 to 100 scale): 20
Corn plant response rating (0-100) (corn (Zea mays) [23]; [34]): 60
Kochia plant response rating (kochia (Bassia scoparia) [24]; 16 g ai/ha, 0 to 100 scale): 0
Kochia plant response rating (0-100) (kochia (Bassia scoparia) [24]; [34]): 60
Oat, Wild plant response rating ([25]; 16 g ai/ha, 0 to 100 scale): 0
Oat, Wild plant response rating (0-100) [25, 34]: 60
Ragweed plant response rating ([26]; 16 g ai/ha, 0 to 100 scale): 0
Ragweed plant response rating (0-100) [26, 34]: 30
Pigweed, Palmer plant response rating ([27]; 16 g ai/ha, 0 to 100 scale): 20
Pigweed, Palmer plant response rating (0-100) [27, 34]: 100
